Where “and” joins values, the source holds several entries; their conditions need not be identical. Identical values can stand only once.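 Tested at 5 concentrations; 48 h exposure; 96-well plates; endpoints linearly interpolated, else capped at highest concentration. At the GI50, growth is halved. TGI is the concentration that stops growth completely.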 Where a SMILES comes first, the peptide text is derived from it. [ ]: non-standard residue; d: D form. The star is where a group is joined. ξ: configuration not given here. X3 = COc1ccc(C(N*)c2ccc(OC)cc2)cc1; NMeF = CN[C@@H](Cc1ccccc1)C(=O)O; NMeD = CN[C@@H](CC(=O)O)C(=O)O; NMeV = CN[C@H](C(=O)O)C(C)C; ξNMeV = CNC(C(=O)O)C(C)C; Boc = CC(C)(C)OC(=O)*; ξNMeA = CNC(C)C(=O)O; ξV = CC(C)C(N)C(=O)O
Assays:
Assay in all cases: DTP human tumour cell line panel, 48 h
ACHN renal = system: ACHN renal
HCT-15 colon = system: HCT-15 colon
K-562 leukemia = system: K-562 leukemia
MDA-MB-231 breast = system: MDA-MB-231 breast
OVCAR-5 ovarian = system: OVCAR-5 ovarian
RPMI-8226 leukemia = system: RPMI-8226 leukemia
SF-295 CNS = system: SF-295 CNS
SK-OV-3 ovarian = system: SK-OV-3 ovarian
SW-620 colon = system: SW-620 colon
U251 CNS = system: U251 CNS

## CCC(=C/[C@H](C)C/C=C/C(C)=C/[C@@H](C)C(=O)[C@@H](C)[C@H](O)[C@@H](C)CC)/C=C/[C@H]1OC(=O)C=C[C@@H]1C
ACHN renal
  GI50: < 0.01 µM
  TGI: 0.566 µM
HCT-15 colon
  GI50: < 0.01 µM
  TGI: 1.28 µM
K-562 leukemia
  GI50: < 0.01 µM
MDA-MB-231 breast
  GI50: < 0.01 µM
  TGI: 2.18 µM
OVCAR-5 ovarian
  GI50: < 0.01 µM
RPMI-8226 leukemia
  GI50: < 0.01 µM
  TGI: 1.19 µM
SF-295 CNS
  GI50: < 0.01 µM
  TGI: 1.43 µM
SK-OV-3 ovarian
  GI50: < 0.035 µM
  TGI: 13.4 µM
SW-620 colon
  GI50: < 0.01 µM
  TGI: 1.32 µM
U251 CNS
  GI50: < 0.01 µM
  TGI: 1.36 µM

## O=C1NC(=NC(CO)Cc2ccccc2)S/C1=C\c1ccc2ncccc2c1 (stereo not given)
ACHN renal
  GI50: 11.2 µM and 3.55 µM
  TGI: > 25 µM
HCT-15 colon
  GI50: 10.5 µM and 4.19 µM
  TGI: > 25 µM
K-562 leukemia
  GI50: 11.2 µM and 3.48 µM
  TGI: > 25 µM
MDA-MB-231 breast
  GI50: > 25 µM and 10.3 µM
  TGI: > 25 µM
OVCAR-5 ovarian
  GI50: > 25 µM and 6.83 µM
  TGI: > 25 µM
RPMI-8226 leukemia
  GI50: > 18.4 µM and 2.33 µM
  TGI: > 25 µM and 12.1 µM
SF-295 CNS
  GI50: > 25 µM and 5.5 µM
  TGI: > 25 µM
SK-OV-3 ovarian
  GI50: 14.1 µM and 3.74 µM
  TGI: > 25 µM and 21.2 µM
SW-620 colon
  GI50: 9.04 µM and 0.927 µM
  TGI: > 25 µM
U251 CNS
  GI50: > 20.9 µM and 2.29 µM
  TGI: > 25 µM

## CN1CC[C@@H](NC(=O)Nc2ccc(C#N)cc2)C[C@@H]1c1nc2ccccc2[nH]1
ACHN renal
  GI50: > 86.5 µM
  TGI: > 100 µM
HCT-15 colon
  GI50: > 100 µM
  TGI: > 100 µM
K-562 leukemia
  GI50: > 100 µM
  TGI: > 100 µM
MDA-MB-231 breast
  GI50: > 100 µM
  TGI: > 100 µM
OVCAR-5 ovarian
  GI50: > 100 µM
  TGI: > 100 µM
RPMI-8226 leukemia
  GI50: > 100 µM
  TGI: > 100 µM
SF-295 CNS
  GI50: > 100 µM
  TGI: > 100 µM
SK-OV-3 ovarian
  GI50: > 100 µM
  TGI: > 100 µM
SW-620 colon
  GI50: > 100 µM
  TGI: > 100 µM
U251 CNS
  GI50: > 100 µM
  TGI: > 100 µM

## CCCCCCCCCCCCC(O)c1ccc(C#CCCCCCCCCCO)o1 (stereo not given)
ACHN renal
  GI50: 18.8 µM
  TGI: 33.5 µM
HCT-15 colon
  GI50: 18.2 µM
  TGI: 36.8 µM
K-562 leukemia
  GI50: 3.73 µM
  TGI: 22.6 µM
MDA-MB-231 breast
  GI50: 20.4 µM
  TGI: 36.2 µM
OVCAR-5 ovarian
  GI50: 20.9 µM
  TGI: 39.2 µM
RPMI-8226 leukemia
  GI50: 27.2 µM
  TGI: 71.3 µM
SF-295 CNS
  GI50: 16.4 µM
  TGI: 31.7 µM
SK-OV-3 ovarian
  GI50: 25.8 µM
  TGI: 62.2 µM
SW-620 colon
  GI50: 22.7 µM
  TGI: 41.4 µM
U251 CNS
  GI50: 18.5 µM
  TGI: 33.6 µM

## CN(C)CC1CC/C(=C\c2ccc(O)cc2)C1=O (stereo not given)
ACHN renal
  TGI: 10.7 µM
HCT-15 colon
  TGI: 5.48 µM
K-562 leukemia
  TGI: 5.76 µM
MDA-MB-231 breast
  TGI: 9.22 µM
OVCAR-5 ovarian
  TGI: 31.6 µM
RPMI-8226 leukemia
  TGI: 4 µM
SF-295 CNS
  TGI: 34.5 µM
SK-OV-3 ovarian
  TGI: 32.3 µM
SW-620 colon
  TGI: 5.33 µM
U251 CNS
  TGI: 12.5 µM

## CN(C)c1cc(NN=C(c2ccc(O)cc2)c2ccc(O)cc2)c([N+](=O)[O-])cc1[N+](=O)[O-]
ACHN renal
  GI50: 2.36 µM
  TGI: 13.3 µM
HCT-15 colon
  GI50: 4.02 µM
  TGI: 17.7 µM
K-562 leukemia
  GI50: 3.61 µM
  TGI: > 100 µM
MDA-MB-231 breast
  GI50: 4.72 µM
  TGI: 17.5 µM
OVCAR-5 ovarian
  GI50: 17.2 µM
  TGI: 32.4 µM
RPMI-8226 leukemia
  GI50: 3.34 µM
  TGI: 27.2 µM
SF-295 CNS
  GI50: 1.86 µM
  TGI: 5.22 µM
SK-OV-3 ovarian
  GI50: 14.4 µM
  TGI: 36.6 µM
SW-620 colon
  GI50: 11.4 µM
  TGI: 24.2 µM
U251 CNS
  GI50: 5.61 µM
  TGI: 18.3 µM

## COc1ccc(C(NC(=O)C[C@@H](C(=O)N(C)C(C)C(=O)O)N(C)C(=O)[C@@H]2CCCN2C(=O)[C@H](C(C)C)N(C)C(=O)C(C(C)C)N(C)C(=O)[C@H](Cc2ccccc2)N(C)C(=O)C(NC(=O)OC(C)(C)C)C(C)C)c2ccc(OC)cc2)cc1 (stereo not given in full) (Boc-[ξV][NMeF][ξNMeV][NMeV]P[NMeD](X3)[ξNMeA]-OH)
ACHN renal
  GI50: 10.6 µM
  TGI: 37.5 µM and 22.5 µM
HCT-15 colon
  GI50: 18.2 µM
  TGI: 37.5 µM and 33.3 µM
K-562 leukemia
  GI50: 18.9 µM
  TGI: 26.9 µM and 43.8 µM
MDA-MB-231 breast
  TGI: 32.3 µM
OVCAR-5 ovarian
  GI50: 17.3 µM
  TGI: > 37.5 µM and 31.5 µM
RPMI-8226 leukemia
  TGI: 19.5 µM
SF-295 CNS
  TGI: 30.2 µM and 32.8 µM
SK-OV-3 ovarian
  GI50: 19.2 µM
  TGI: > 37.5 µM and 33.3 µM
SW-620 colon
  GI50: 18.3 µM
  TGI: 16.5 µM and 32.3 µM
U251 CNS
  GI50: 19.4 µM
  TGI: 23.6 µM and 35.7 µM

## CCN(Cc1ccc(F)cc1)c1cc(Cl)c(CO)c(Cl)c1
ACHN renal
  GI50: 14.9 µM
  TGI: 29.2 µM
HCT-15 colon
  GI50: 15.7 µM
  TGI: 36.6 µM
K-562 leukemia
  GI50: 15.9 µM
  TGI: 51.6 µM
MDA-MB-231 breast
  GI50: 13 µM
  TGI: 26.7 µM
OVCAR-5 ovarian
  GI50: 4.22 µM
  TGI: 17.7 µM
RPMI-8226 leukemia
  GI50: 10.7 µM
  TGI: 42.9 µM
SF-295 CNS
  GI50: 10.9 µM
  TGI: 25.6 µM
SK-OV-3 ovarian
  GI50: 15.2 µM
  TGI: 28.7 µM
SW-620 colon
  GI50: 13.7 µM
  TGI: 30.4 µM
U251 CNS
  GI50: 10.5 µM
  TGI: 22.6 µM

## O=C(O)c1nc2nc(Cl)c(Cl)nc2[nH]1
ACHN renal
  TGI: > 100 µM
HCT-15 colon
  TGI: > 100 µM
K-562 leukemia
  TGI: > 100 µM
MDA-MB-231 breast
  TGI: > 100 µM
OVCAR-5 ovarian
  TGI: > 100 µM
RPMI-8226 leukemia
  TGI: > 100 µM
SF-295 CNS
  TGI: > 100 µM
SK-OV-3 ovarian
  TGI: > 100 µM
SW-620 colon
  TGI: > 100 µM
U251 CNS
  TGI: > 100 µM

## COc1cccc(C2SC(N)=Nc3c2c(C)nn3C(=O)c2ccccc2O)c1 (stereo not given)
ACHN renal
  TGI: > 10 µM
HCT-15 colon
  TGI: > 10 µM
K-562 leukemia
  TGI: > 10 µM
MDA-MB-231 breast
  TGI: > 9.64 µM
OVCAR-5 ovarian
  TGI: > 10 µM
RPMI-8226 leukemia
  TGI: > 10 µM
SF-295 CNS
  TGI: > 10 µM
SK-OV-3 ovarian
  TGI: > 10 µM
SW-620 colon
  TGI: > 10 µM
U251 CNS
  TGI: > 10 µM

## CCN(C(=O)N1CCN(c2cc3c(cc2F)c(=O)c(C(=O)O)cn3C2CC2)CC1)c1nc(-c2ccc(Cl)cc2)cs1
ACHN renal
  GI50: 1.24 µM
  TGI: 10.1 µM
HCT-15 colon
  GI50: 0.967 µM
  TGI: > 100 µM
K-562 leukemia
  GI50: 1.13 µM
  TGI: > 100 µM
MDA-MB-231 breast
  GI50: 1.69 µM
  TGI: 6.35 µM
OVCAR-5 ovarian
  GI50: 2.62 µM
  TGI: > 100 µM
RPMI-8226 leukemia
  GI50: 0.838 µM
  TGI: 3.17 µM
SF-295 CNS
  GI50: 0.888 µM
  TGI: 6 µM
SK-OV-3 ovarian
  GI50: 1.83 µM
  TGI: 6.46 µM
SW-620 colon
  GI50: 1.83 µM
  TGI: > 100 µM
U251 CNS
  GI50: 1.15 µM
  TGI: 29.7 µM

## COc1cccc(-c2nc(-c3ccc(NC(=O)OC(C)C)cc3)[nH]c2-c2ccnc(Br)c2)c1
ACHN renal
  GI50: 2.7 µM
  TGI: > 100 µM
HCT-15 colon
  GI50: 1.19 µM
  TGI: 4.79 µM
K-562 leukemia
  GI50: 1.88 µM
  TGI: > 100 µM
MDA-MB-231 breast
  GI50: 3.85 µM
  TGI: > 100 µM
OVCAR-5 ovarian
  GI50: 4.43 µM
  TGI: > 100 µM
RPMI-8226 leukemia
  GI50: 0.389 µM
  TGI: 2.21 µM
SF-295 CNS
  GI50: 0.256 µM
  TGI: 0.64 µM
SK-OV-3 ovarian
  GI50: 3.85 µM
  TGI: > 100 µM
SW-620 colon
  GI50: 3.32 µM
  TGI: > 100 µM
U251 CNS
  GI50: 1.69 µM
  TGI: > 100 µM

## COc1cccc(C(=O)NC(c2ccc(C)cc2)c2cc(Cl)c3cccnc3c2O)c1 (stereo not given)
ACHN renal
  GI50: 0.445 µM
  TGI: 10.4 µM
HCT-15 colon
  GI50: 0.309 µM
  TGI: 28.2 µM
K-562 leukemia
  GI50: 0.466 µM
  TGI: 54.8 µM
MDA-MB-231 breast
  GI50: 0.612 µM
  TGI: 15.4 µM
OVCAR-5 ovarian
  GI50: 1.13 µM
  TGI: 24.4 µM
RPMI-8226 leukemia
  GI50: 0.621 µM
  TGI: 19.1 µM
SF-295 CNS
  GI50: 0.382 µM
  TGI: 15.3 µM
SK-OV-3 ovarian
  GI50: 0.682 µM
  TGI: 11.3 µM
SW-620 colon
  GI50: 0.425 µM
  TGI: 23.4 µM
U251 CNS
  GI50: 0.333 µM
  TGI: 11.2 µM
